Reference: ChEMBL document CHEMBL3352598, “Synthesis, pharmacological evaluation and molecular modeling studies of triazole containing dopamine D3 receptor ligands” (Bioorg Med Chem Lett, 2015)

How the values were obtained:
D(3) dopamine receptor = D(3) dopamine receptor (Homo sapiens, UniProt P35462); experiment: biochemical; format: cell-based, HEK293
D(2) dopamine receptor = D(2) dopamine receptor (Homo sapiens, UniProt P14416); experiment: biochemical; format: cell-based, HEK293
D(4) dopamine receptor = target: T1, D(4) dopamine receptor (Homo sapiens, UniProt P21917); experiment: Displacement of [125I]-IABN from human D4 receptor expressed in HEK293 cell membranes after 60 mins by filtration binding assay
T1 sequence (P21917 whole entry): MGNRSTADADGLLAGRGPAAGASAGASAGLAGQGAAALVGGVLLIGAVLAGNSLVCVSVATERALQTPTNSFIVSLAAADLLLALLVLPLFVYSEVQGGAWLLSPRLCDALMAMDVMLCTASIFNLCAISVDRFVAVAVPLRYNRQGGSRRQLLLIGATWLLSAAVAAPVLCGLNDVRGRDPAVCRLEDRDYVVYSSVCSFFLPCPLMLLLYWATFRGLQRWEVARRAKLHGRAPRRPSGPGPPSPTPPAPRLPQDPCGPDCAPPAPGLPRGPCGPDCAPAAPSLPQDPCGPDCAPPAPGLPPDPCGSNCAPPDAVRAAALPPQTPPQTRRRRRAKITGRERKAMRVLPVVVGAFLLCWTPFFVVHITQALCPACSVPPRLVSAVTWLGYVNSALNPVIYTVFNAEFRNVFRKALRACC

Homo sapiens = species on record: Homo sapiens; experiment: Selectivity index, ratio of Ki for D4 receptor to Ki for human D3 receptor
[1] = target: T2, 5-hydroxytryptamine receptor 1A (Homo sapiens, UniProt P08908); experiment: Displacement of [3H]8-OH-DPAT from human 5HT1A receptor after 60 mins by filtration binding assay
T2 sequence (P08908 whole entry): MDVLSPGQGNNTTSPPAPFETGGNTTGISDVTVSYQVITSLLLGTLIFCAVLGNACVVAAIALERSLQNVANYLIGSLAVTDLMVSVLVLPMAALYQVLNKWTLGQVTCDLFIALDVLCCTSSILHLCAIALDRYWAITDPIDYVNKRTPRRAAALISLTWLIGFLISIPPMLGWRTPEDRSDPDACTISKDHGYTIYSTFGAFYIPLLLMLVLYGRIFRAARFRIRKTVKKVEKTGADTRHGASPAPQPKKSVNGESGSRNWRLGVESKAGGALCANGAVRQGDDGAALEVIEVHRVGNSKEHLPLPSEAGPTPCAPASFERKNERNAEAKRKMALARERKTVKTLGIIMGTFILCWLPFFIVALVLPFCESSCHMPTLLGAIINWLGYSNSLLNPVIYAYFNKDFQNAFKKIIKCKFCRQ

Sequence of D(3) dopamine receptor (P35462 whole entry): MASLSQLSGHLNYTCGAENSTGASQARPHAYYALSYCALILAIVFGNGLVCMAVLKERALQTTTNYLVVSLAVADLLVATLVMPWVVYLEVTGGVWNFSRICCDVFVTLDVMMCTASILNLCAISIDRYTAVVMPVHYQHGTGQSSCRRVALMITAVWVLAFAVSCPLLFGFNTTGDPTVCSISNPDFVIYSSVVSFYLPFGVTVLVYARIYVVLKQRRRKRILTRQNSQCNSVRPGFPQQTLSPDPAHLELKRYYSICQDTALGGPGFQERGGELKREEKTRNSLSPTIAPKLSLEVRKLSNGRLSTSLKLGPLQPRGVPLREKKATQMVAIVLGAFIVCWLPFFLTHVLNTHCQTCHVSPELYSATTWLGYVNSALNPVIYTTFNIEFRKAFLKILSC
Sequence of D(2) dopamine receptor (P14416 whole entry): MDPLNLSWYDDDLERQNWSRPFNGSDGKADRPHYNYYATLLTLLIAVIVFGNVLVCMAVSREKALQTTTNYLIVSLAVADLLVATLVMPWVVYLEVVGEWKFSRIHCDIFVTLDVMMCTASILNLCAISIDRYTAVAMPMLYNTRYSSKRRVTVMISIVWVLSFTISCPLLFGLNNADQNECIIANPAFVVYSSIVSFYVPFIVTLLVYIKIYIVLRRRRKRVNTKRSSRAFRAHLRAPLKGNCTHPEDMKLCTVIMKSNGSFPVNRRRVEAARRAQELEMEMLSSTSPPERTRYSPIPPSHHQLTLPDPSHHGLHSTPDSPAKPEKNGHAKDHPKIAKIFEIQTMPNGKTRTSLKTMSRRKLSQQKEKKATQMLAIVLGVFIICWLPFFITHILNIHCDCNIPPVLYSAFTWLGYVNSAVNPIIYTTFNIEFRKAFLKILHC

Compound | Ki (D(3) dopamine receptor) | Ki (D(2) dopamine receptor) | Ki (D(4) dopamine receptor) | Ratio Ki (Homo sapiens) | Ki [1]
COc1ccccc1N1CCN(CCCc2cn(-c3cccc4cnccc34)nn2)CC1 | 36.3 nM | 79.3 nM | – | – | –
COc1ccccc1N1CCN(CCCCc2cn(-c3ccccc3OC)nn2)CC1 | 25.4 nM | 139 nM | – | – | –
COc1ccccc1N1CCN(CCCc2cn(-c3ccc(N(C)C)cc3)nn2)CC1 | 29.6 nM | 162 nM | – | – | –
COc1ccccc1N1CCN(CCCCCc2cn(-c3ccccc3OC)nn2)CC1 | 21.1 nM | 62.7 nM | – | – | –
COc1ccccc1N1CCN(CCCCCc2cn(-c3ccc(SC)cc3)nn2)CC1 | 2.3 nM | 26.6 nM | 227 nM | 99 | 3.9 nM
COc1ccccc1N1CCN(CCCCCc2cn(-c3ccc(N(C)C)cc3)nn2)CC1 | 6.7 nM | 62.6 nM | – | – | –
COc1ccccc1N1CCN(CCCCNC(=O)c2ccc(N(C)C)cc2)CC1 | – | – | – | 1120 | 7.5 nM
COc1ccccc1N1CCN(CCCCc2cn(-c3cccc4cnccc34)nn2)CC1 | 3.7 nM | 42.3 nM | 875 nM | 237 | 6 nM
COc1ccccc1N1CCN(CCCCCc2cn(-c3ccccc3)nn2)CC1 | 3.1 nM | 19.4 nM | – | – | –
COc1ccccc1N1CCN(CCCCCc2cn(-c3ccc(F)cc3)nn2)CC1 | 3.2 nM | 23.7 nM | – | – | –
COc1ccccc1N1CCN(CCCCCc2cn(-c3ccc(-c4ccsc4)cc3)nn2)CC1 | 6.3 nM | 109 nM | 163 nM | 26 | 153 nM
COc1ccccc1N1CCN(CCCCc2cn(-c3ccccc3O)nn2)CC1 | 2.9 nM | 9.4 nM | – | – | –
COc1ccccc1N1CCN(CCCCc2cn(-c3ccc(F)cc3)nn2)CC1 | 6.5 nM | 46.7 nM | – | – | –
COc1ccccc1N1CCN(CCCc2cn(-c3ccccc3O)nn2)CC1 | 6.8 nM | 12.8 nM | – | – | –
COc1ccccc1N1CCN(CCCCc2cn(-c3ccccc3)nn2)CC1 | 4.7 nM | 30.9 nM | – | – | –
COc1ccccc1N1CCN(CCCCc2cn(-c3ccc(-c4ccsc4)cc3)nn2)CC1 | 8.2 nM | 94.3 nM | 395 nM | 48 | 1.3 nM
COc1ccccc1N1CCN(CCCc2cn(-c3ccc(SC)cc3)nn2)CC1 | 9.6 nM | 44.1 nM | – | – | –
COc1ccccc1N1CCN(CCCc2cn(-c3ccccc3)nn2)CC1 | 22.2 nM | 64 nM | – | – | –
COc1ccccc1N1CCN(CCCCCc2cn(-c3cccc4cnccc34)nn2)CC1 | 1.8 nM | 17.7 nM | 186 nM | 103 | 5.8 nM
COc1ccccc1N1CCN(CCCc2cn(-c3ccc(-c4ccsc4)cc3)nn2)CC1 | 8.9 nM | 158 nM | 90 nM | 10 | 7.4 nM
COc1ccccc1N1CCN(CCCc2cn(-c3ccccc3OC)nn2)CC1 | 93.1 nM | 272 nM | – | – | –
COc1ccccc1N1CCN(CCCCc2cn(-c3ccc(N(C)C)cc3)nn2)CC1 | 13.9 nM | 171 nM | 758 nM | 55 | 9.4 nM
COc1ccccc1N1CCN(CCCCc2cn(-c3ccc(SC)cc3)nn2)CC1 | 2.1 nM | 37.7 nM | 200 nM | 95 | 5.3 nM
COc1ccccc1N1CCN(CCCc2cn(-c3ccc(F)cc3)nn2)CC1 | 26.5 nM | 73.5 nM | – | – | –
